Measurements from patent publication US11439670B2, “Akkermansia muciniphila EB-AMDK27 strain and use thereof” (ENTEROBIOME INC., priority 2019, dated 2022).
≈ marks a conversion by molar mass, not a printed value.

Tests used:
Type in all cases: cell-based
[1] = test system: Akkermansia muciniphila ATCC BAA-835; assay: Utilization of carbohydrates, API50CH kit (type strain)
Procedure: (§1) In order to examine the utilization of carbohydrates by the isolated Akkermansia muciniphila strain of the present invention, the strain was cultured using an API50CH kit (Biomerieux, France), and then whether the strain would grow using each carbohydrate was compared with the type strain (ATCC BAA-835).

[2] = test system: Akkermansia muciniphila EB-AMDK27 strain; assay: Utilization of carbohydrates, API50CH kit (isolated strain)
Procedure: as §1

[3] = test system: Bacteroides thetiotaomicron ATCC 29741; assay: Antimicrobial susceptibility, MIC by broth microdilution (CLSI), QC strain; set-up: MIC, QC ATCC 29741: unit not given beside the values; settings: for MIC: Bacteroides, ATCC29741, read-out: MIC, QC ATCC 29741
[4] = test system: Akkermansia muciniphila EB-AMDK27 strain; assay: Antimicrobial susceptibility, MIC by broth microdilution (CLSI); settings: EBAMDK27STRAIN, read-out: MIC, Test strain EB-AMDK27

**Q.** D-Turanose was tested. Which “growth using each carbohydrate, ATCC BAA-835” value (shortened to “growth … ATCC BAA-835”) [1] did it give?
**A.** −

**Q.** And the “growth using each carbohydrate, EB-AMDK27” value (“growth … EB-AMDK27” for short) [2]?
**A.** −

**Q.** For Glycogene, which “growth … ATCC BAA-835” value [1] is on record?
**A.** −

**Q.** What about the “growth … EB-AMDK27” value [2] of the same molecule?
**A.** −

**Q.** For `CO/N=C(\C(=O)N[C@@H]1C(=O)N2C(C(=O)O)=CCS[C@H]12)c1csc(N)n1` [CTZ, Ceftizoxime], which MIC [3] is on record?
**A.** 16 µg/mL (≈ 41.7 µM)

**Q.** And the MIC [4]?
**A.** 2 µg/mL (≈ 5.22 µM)

**Q.** `N#C[C@H](O[C@@H]1O[C@H](CO[C@@H]2O[C@H](CO)[C@@H](O)[C@H](O)[C@H]2O)[C@@H](O)[C@H](O)[C@H]1O)c1ccccc1` [Amygdaline] was tested. Which “growth … ATCC BAA-835” value [1] did it give?
**A.** −

**Q.** And the “growth … EB-AMDK27” value [2]?
**A.** −

**Q.** How did the “growth … ATCC BAA-835” value [1] turn out when `OC[C@H]1O[C@@H](O[C@H]2[C@H](O)[C@@H](O)[C@H](O)O[C@@H]2CO)[C@H](O)[C@@H](O)[C@@H]1O` [D-Cellobiose] was run?
**A.** −

**Q.** And the “growth … EB-AMDK27” value [2]?
**A.** −

**Q.** `OC[C@@H](O)C(O)[C@H](O)CO` [D-Arabitol] was tested. Which “growth … ATCC BAA-835” value [1] did it give?
**A.** −

**Q.** And the “growth … EB-AMDK27” value [2]?
**A.** −

**Q.** How did the “growth … ATCC BAA-835” value [1] turn out when `CO[C@H]1O[C@H](CO)[C@@H](O)[C@H](O)[C@@H]1O` [Methyl-α D-mannopyranoside] was run?
**A.** −

**Q.** What about the “growth … EB-AMDK27” value [2] of the same molecule?
**A.** −

**Q.** Which “growth … ATCC BAA-835” value [1] does the source give for `CO[C@H]1OC[C@@H](O)[C@H](O)[C@H]1O` [α-Methyl-xyloside] here?
**A.** −

**Q.** What about the “growth … EB-AMDK27” value [2] of the same molecule?
**A.** −

**Q.** Which “growth … ATCC BAA-835” value [1] does the source give for `O=c1ccc2cc(O[C@@H]3O[C@H](CO)[C@@H](O)[C@H](O)[C@H]3O)c(O)cc2o1` [Esculine] here?
**A.** −

**Q.** And the “growth … EB-AMDK27” value [2]?
**A.** −

**Q.** How did the “growth … ATCC BAA-835” value [1] turn out when `OC[C@H]1O[C@H](OCC2O[C@@H](O)[C@H](O)[C@@H](O)[C@@H]2O)[C@H](O)[C@@H](O)[C@H]1O` (stereo partly drawn) [D-Melibiose] was run?
**A.** −

**Q.** And the “growth … EB-AMDK27” value [2]?
**A.** −

**Q.** How did the “growth … ATCC BAA-835” value [1] turn out when Amidon [Amidon (starch)] was run?
**A.** −

**Q.** And the “growth … EB-AMDK27” value [2]?
**A.** −

**Q.** With `COc1c(N2C[C@@H]3CCCN[C@@H]3C2)c(F)cc2c(=O)c(C(=O)O)cn(C3CC3)c12` [MXF, Moxifloxacin] as the molecule, how does the MIC [3] read?
**A.** 8 µg/mL (≈ 19.9 µM)

**Q.** What about the MIC [4] of the same molecule?
**A.** > 32 µg/mL

**Q.** Which MIC [3] does the source give for `O=C(N[C@H](CO)[C@H](O)c1ccc([N+](=O)[O-])cc1)C(Cl)Cl` [CHL, Chloramphenicol] here?
**A.** 8 µg/mL (≈ 24.8 µM)

**Q.** What about the MIC [4] of the same molecule?
**A.** 4 µg/mL (≈ 12.4 µM)

**Q.** What does the source list for `O=C([O-])C(=O)C(O)C(O)C(O)CO.[K+]` (centres unmarked) [Potassium 2-Ketogluconate]?
**A.** growth using each carbohydrate, ATCC BAA-835 [1]: −; growth using each carbohydrate, EB-AMDK27 [2]: −

**Q.** Which “MIC, QC ATCC 29741” value ([3]; broth microdilution) does the source give for Piperacillin-Tazobactam [PTZ] here?
**A.** 8/4

**Q.** How did the “growth … ATCC BAA-835” value [1] turn out when `OCc1ccccc1O[C@@H]1O[C@H](CO)[C@@H](O)[C@H](O)[C@H]1O` [Salicine] was run?
**A.** −

**Q.** What about the “growth … EB-AMDK27” value [2] of the same molecule?
**A.** −

**Q.** With `CO[C@H]1O[C@H](CO)[C@@H](O)[C@H](O)[C@H]1O` [Methyl-α D-glucopyranoside] as the molecule, how does the “growth … ATCC BAA-835” value [1] read?
**A.** −

**Q.** And the “growth … EB-AMDK27” value [2]?
**A.** −

**Q.** With `OC[C@@H](O)[C@H](O)[C@H](O)[C@@H](O)CO` [Dulcitol] as the molecule, how does the “growth … ATCC BAA-835” value [1] read?
**A.** −

**Q.** What about the “growth … EB-AMDK27” value [2] of the same molecule?
**A.** −

**Q.** With `OC[C@H]1O[C@@](CO)(O[C@H]2O[C@H](CO)[C@@H](O)[C@H](O)[C@H]2O)[C@@H](O)[C@@H]1O` [D-Saccharose (sucrose), D-Saccharose] as the molecule, how does the “growth … ATCC BAA-835” value [1] read?
**A.** −

**Q.** And the “growth … EB-AMDK27” value [2]?
**A.** −

**Q.** Which MIC [3] does the source give for `Cc1ncc([N+](=O)[O-])n1CCO` [MTZ, Metronidazole] here?
**A.** 2 µg/mL (≈ 11.7 µM)

**Q.** What about the MIC [4] of the same molecule?
**A.** 0.25 µg/mL (≈ 1.46 µM)

**Q.** With `OC[C@H]1O[C@H](O[C@H]2[C@H](O)[C@@H](O)[C@H](O)O[C@@H]2CO)[C@H](O)[C@@H](O)[C@@H]1O` [D-Maltose] as the molecule, how does the “growth … ATCC BAA-835” value [1] read?
**A.** −

**Q.** And the “growth … EB-AMDK27” value [2]?
**A.** −

**Q.** What does the source list for `OC[C@H]1O[C@H](OC[C@H]2O[C@H](O[C@]3(CO)O[C@H](CO)[C@@H](O)[C@@H]3O)[C@H](O)[C@@H](O)[C@@H]2O)[C@H](O)[C@@H](O)[C@H]1O` [D-Raffinose]?
**A.** growth using each carbohydrate, ATCC BAA-835 [1]: −; growth using each carbohydrate, EB-AMDK27 [2]: −

**Q.** How did the MIC [3] turn out when `C[C@@H](O)[C@H]1C(=O)N2C(C(=O)O)=C(S[C@@H]3CN[C@H](C(=O)N(C)C)C3)[C@H](C)[C@H]12` [MEM, Meropenem] was run?
**A.** 0.5 µg/mL (≈ 1.3 µM)

**Q.** And the MIC [4]?
**A.** 0.5 µg/mL (≈ 1.3 µM)

**Q.** For `OC[C@H]1O[C@@H](Oc2ccc(O)cc2)[C@H](O)[C@@H](O)[C@@H]1O` [Arbutine], which “growth … ATCC BAA-835” value [1] is on record?
**A.** −

**Q.** What about the “growth … EB-AMDK27” value [2] of the same molecule?
**A.** −

**Q.** Which “growth … ATCC BAA-835” value [1] does the source give for `CCN1C[C@]2(COC(=O)c3ccccc3N)CC[C@H](OC)[C@]34C5C[C@@H]6[C@@H](OC)C[C@@](O)(C5[C@H]6OC)[C@@](O)(C13)[C@@H](OC)C24` (some centres unmarked) [Inuline] here?
**A.** −

**Q.** What about the “growth … EB-AMDK27” value [2] of the same molecule?
**A.** −

**Q.** `OC[C@H](O)C(O)[C@@H](O)CO` [L-Arabitol] was tested. Which “growth … ATCC BAA-835” value [1] did it give?
**A.** −

**Q.** And the “growth … EB-AMDK27” value [2]?
**A.** −

**Q.** With `OC[C@H]1O[C@H](O[C@H]2O[C@H](CO)[C@@H](O)[C@H](O)[C@H]2O)[C@H](O)[C@@H](O)[C@@H]1O` [D-Trehalose] as the molecule, how does the “growth … ATCC BAA-835” value [1] read?
**A.** −

**Q.** And the “growth … EB-AMDK27” value [2]?
**A.** −

**Q.** For `CCC[C@@H]1C[C@@H](C(=O)N[C@@H]([C@H]2O[C@H](SC)[C@H](O)[C@@H](O)[C@H]2O)[C@H](C)Cl)N(C)C1` [CLI, Clindamycin], which MIC [4] is on record?
**A.** ≤ 0.125 µg/mL

**Q.** `OC[C@H]1O[C@@](CO)(O[C@H]2O[C@H](CO)[C@@H](O)[C@H](O)[C@H]2O)[C@@H](O[C@H]2O[C@H](CO)[C@@H](O)[C@H](O)[C@H]2O)[C@@H]1O` [D-Melezitose] was tested. Which “growth … ATCC BAA-835” value [1] did it give?
**A.** −

**Q.** What about the “growth … EB-AMDK27” value [2] of the same molecule?
**A.** −
